According to patent US20250186405A1, “Compound For Use In Treating Narcolepsy” (Alkermes, Inc., priority 2023, published 2025):

System: subjects with narcolepsy type-2 (NT2)
Experiment: Part 5 POC NT2: treatment-emergent adverse events, single doses, crossover
Details: N = 9
Method: Part 5 consisted of a 4-way, 4-period crossover study design in approximately 8 subjects (2 subjects per sequence; minimum of 4 subjects with 1 subject per sequence). Subjects were randomized 1:1:1:1 to 1 of 4 sequences with 4 treatment periods (3 single doses of Compound A and 1 dose of matching placebo), with up to 48 hours of washout between treatments. Treatments were administered under fasted state.
Subjects were randomized to 1 of 4 sequences. […] In each period, subjects were administered a single dose of study drug (either Compound A or placebo) as per the randomization schedule with approximately 240 mL of noncarbonated water following overnight fasting. No food was given for at least 3 hours after dose administration (i.e., fast can be broken after the 3-hour PK time point is collected). Water was allowed ad libitum except for 1 hour before and 1 hour after study drug administration. Safety assessments including AEs, safety ECGs, vital signs, and clinical laboratory tests were conducted, and plasma PK samples were collected. Furthermore, BP and HR were monitored once every hour for 12 hours on the dosing days.
Adverse events (AEs) and serious adverse events (SAEs) were monitored continuously until the completion of the study.
Nine subjects with NT2 were dosed in Part 5 (POC in NT2) in a randomized 4-sequence 4-period cross-over design. Each dose of Compound A or matching placebo was separated by 2 days. A 14-day washout period preceded the treatment period and included discontinuation of narcolepsy medications. All 9 subjects underwent the washout period and received at least one dose of Compound A. All subjects completed all 4-way randomized crossover periods.

CS(=O)(=O)N[C@H]1CCCN2C(=O)COc3ccccc3C3CCC(CC3)OCC12 (stereo partly drawn) [Compound A, N-[(4S,4aR,7α,10α)-1,2,3,4,4a,5,7,8,9,10,16,17-dodecahydro-17-oxo-7,10-ethanopyrido[1,2-d][1,7,4]benzodioxaazacyclotridecin-4-yl]methanesulfonamide]
AE Leading to Study Drug Discontinuation (5 mg single dose): 0 n (%)
Any SAEs (5 mg single dose): 0 n (%)
Any TEAE (5 mg single dose): 3 (33.3) n (%)
Death (5 mg single dose): 0 n (%)
Drug Related TEAE by Preferred Term: Altered state of consciousness (5 mg single dose): 0 n (%)
Drug Related TEAE by Preferred Term: Dizziness (5 mg single dose): 0 n (%)
Drug Related TEAE by Preferred Term: Dizziness postural (5 mg single dose): 0 n (%)
Drug Related TEAE by Preferred Term: Feeling jittery (5 mg single dose): 0 n (%)
Drug Related TEAE by Preferred Term: Headache (5 mg single dose): 0 n (%)
Drug Related TEAE by Preferred Term: Initial insomnia (5 mg single dose): 1 (11.1) n (%)
Drug Related TEAE by Preferred Term: Insomnia (5 mg single dose): 0 n (%)
Drug Related TEAE by Preferred Term: Photophobia (5 mg single dose): 0 n (%)
Drug Related TEAE by Preferred Term: Pollakiuria (5 mg single dose): 0 n (%)
Drug Related TEAE by Preferred Term: Tachycardia (5 mg single dose): 0 n (%)
Drug Related TEAE by Preferred Term: Urinary incontinence (5 mg single dose): 0 n (%)
Subjects with at least one TEAE (5 mg single dose): 3 (33.3) n (%)
Subjects with at least one treatment-related TEAE (5 mg single dose): 1 (11.1) n (%)
TEAE by Highest Relationship: Not Related (5 mg single dose): 2 (22.2) n (%)
TEAE by Highest Relationship: Related (5 mg single dose): 1 (11.1) n (%)
TEAE by Highest Severity: Mild (5 mg single dose): 3 (33.3) n (%)
TEAE by Highest Severity: Moderate (5 mg single dose): 0 n (%)
TEAE by Highest Severity: Severe (5 mg single dose): 0 n (%)
TEAE by Preferred Term: Altered state of consciousness (5 mg single dose): 0 n (%)
TEAE by Preferred Term: Constipation (5 mg single dose): 0 n (%)
TEAE by Preferred Term: Contusion (5 mg single dose): 0 n (%)
TEAE by Preferred Term: Dizziness (5 mg single dose): 0 n (%)
TEAE by Preferred Term: Dizziness postural (5 mg single dose): 0 n (%)
TEAE by Preferred Term: Dry skin (5 mg single dose): 1 (11.1) n (%)
TEAE by Preferred Term: Feeling jittery (5 mg single dose): 0 n (%)
TEAE by Preferred Term: Headache (5 mg single dose): 0 n (%)
TEAE by Preferred Term: Initial insomnia (5 mg single dose): 1 (11.1) n (%)
TEAE by Preferred Term: Insomnia (5 mg single dose): 0 n (%)
TEAE by Preferred Term: Nasal dryness (5 mg single dose): 0 n (%)
TEAE by Preferred Term: Nausea (5 mg single dose): 0 n (%)
TEAE by Preferred Term: Photophobia (5 mg single dose): 0 n (%)
TEAE by Preferred Term: Pollakiuria (5 mg single dose): 0 n (%)
TEAE by Preferred Term: Rash (5 mg single dose): 0 n (%)
TEAE by Preferred Term: Skin lesion (5 mg single dose): 1 (11.1) n (%)
TEAE by Preferred Term: Tachycardia (5 mg single dose): 0 n (%)
TEAE by Preferred Term: Urinary incontinence (5 mg single dose): 0 n (%)
AE Leading to Study Drug Discontinuation (12 mg single dose): 0 n (%)
Any SAEs (12 mg single dose): 0 n (%)
Any TEAE (12 mg single dose): 4 (44.4) n (%)
Death (12 mg single dose): 0 n (%)
Drug Related TEAE by Preferred Term: Altered state of consciousness (12 mg single dose): 0 n (%)
Drug Related TEAE by Preferred Term: Dizziness (12 mg single dose): 0 n (%)
Drug Related TEAE by Preferred Term: Dizziness postural (12 mg single dose): 0 n (%)
Drug Related TEAE by Preferred Term: Feeling jittery (12 mg single dose): 0 n (%)
Drug Related TEAE by Preferred Term: Headache (12 mg single dose): 0 n (%)
Drug Related TEAE by Preferred Term: Initial insomnia (12 mg single dose): 0 n (%)
Drug Related TEAE by Preferred Term: Insomnia (12 mg single dose): 0 n (%)
Drug Related TEAE by Preferred Term: Photophobia (12 mg single dose): 0 n (%)
Drug Related TEAE by Preferred Term: Pollakiuria (12 mg single dose): 1 (1.1) n (%)
Drug Related TEAE by Preferred Term: Tachycardia (12 mg single dose): 0 n (%)
Drug Related TEAE by Preferred Term: Urinary incontinence (12 mg single dose): 0 n (%)
Subjects with at least one TEAE (12 mg single dose): 4 (44.4) n (%)
Subjects with at least one treatment-related TEAE (12 mg single dose): 1 (11.1) n (%)
TEAE by Highest Relationship: Not Related (12 mg single dose): 3 (33.3) n (%)
TEAE by Highest Relationship: Related (12 mg single dose): 1 (11.1) n (%)
TEAE by Highest Severity: Mild (12 mg single dose): 4 (44.4) n (%)
TEAE by Highest Severity: Moderate (12 mg single dose): 0 n (%)
TEAE by Highest Severity: Severe (12 mg single dose): 0 n (%)
TEAE by Preferred Term: Altered state of consciousness (12 mg single dose): 0 n (%)
TEAE by Preferred Term: Constipation (12 mg single dose): 1 (11.1) n (%)
TEAE by Preferred Term: Contusion (12 mg single dose): 0 n (%)
TEAE by Preferred Term: Dizziness (12 mg single dose): 0 n (%)
TEAE by Preferred Term: Dizziness postural (12 mg single dose): 0 n (%)
TEAE by Preferred Term: Dry skin (12 mg single dose): 0 n (%)
TEAE by Preferred Term: Feeling jittery (12 mg single dose): 0 n (%)
TEAE by Preferred Term: Headache (12 mg single dose): 0 n (%)
TEAE by Preferred Term: Initial insomnia (12 mg single dose): 0 n (%)
TEAE by Preferred Term: Insomnia (12 mg single dose): 0 n (%)
TEAE by Preferred Term: Nasal dryness (12 mg single dose): 0 n (%)
TEAE by Preferred Term: Nausea (12 mg single dose): 1 (11.1) n (%)
TEAE by Preferred Term: Photophobia (12 mg single dose): 0 n (%)
TEAE by Preferred Term: Pollakiuria (12 mg single dose): 1 (11.1) n (%)
TEAE by Preferred Term: Rash (12 mg single dose): 1 (11.1) n (%)
TEAE by Preferred Term: Skin lesion (12 mg single dose): 0 n (%)
TEAE by Preferred Term: Tachycardia (12 mg single dose): 0 n (%)
TEAE by Preferred Term: Urinary incontinence (12 mg single dose): 0 n (%)
AE Leading to Study Drug Discontinuation (25 mg single dose): 0 n (%)
